Data from PubChem BioAssay AID256 (DTP/NCI, 2004).
Where “and” joins values, the source holds several entries; their conditions need not be identical. Equal values may be shown once. Toxic doses and inconclusive results are not listed. Rule for the calls: active = survival T/C of 150% or more; inactive = T/C below 125% in these data.

System: CD2F1 mice, L1210 leukemia ip, survival T/C
Test: NCI In Vivo Anticancer Drug Screen. Data for tumor model L1210 Leukemia (intraperitoneal) in CD2F1 (CDF1) mice
Conditions: higher = longer survival
Procedure, shortened: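 Mice carrying a transplanted tumor received test compound or vehicle alone. The value is the measurement in the treated group divided by that in the vehicle-treated control group.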

[1] = endpoint: mean survival time, dose: 100.0 mg/kg/injection, schedule: Q01DX001 (ip), vehicle: saline with Tween-80
[2] = endpoint: mean survival time, dose: 200.0 mg/kg/injection, schedule: Q01DX001 (ip), vehicle: saline with Tween-80
[3] = endpoint: mean survival time, dose: 100.0 mg/kg/injection, schedule: Q04DX003 (ip), vehicle: saline with Tween-80
[4] = endpoint: mean survival time, dose: 200.0 mg/kg/injection, schedule: Q04DX003 (ip), vehicle: saline with Tween-80
[5] = endpoint: mean survival time, dose: 100.0 mg/kg/injection, schedule: Q01DX009 (ip), vehicle: saline with Tween-80
[6] = endpoint: mean survival time, dose: 200.0 mg/kg/injection, schedule: Q01DX009 (ip), vehicle: saline with Tween-80
[7] = endpoint: mean survival time, dose: 400.0 mg/kg/injection, schedule: Q01DX009 (ip), vehicle: saline with Tween-80
[8] = endpoint: mean survival time, dose: 400.0 mg/kg/injection, schedule: Q04DX003 (ip), vehicle: saline with Tween-80
[9] = endpoint: mean survival time, dose: 100.0 mg/kg/injection, schedule: Q04DX002 (ip), vehicle: saline with Tween-80
[10] = endpoint: mean survival time, dose: 200.0 mg/kg/injection, schedule: Q04DX002 (ip), vehicle: saline with Tween-80
[11] = endpoint: mean survival time, dose: 400.0 mg/kg/injection, schedule: Q04DX002 (ip), vehicle: saline with Tween-80
[12] = endpoint: mean survival time, dose: 50.0 mg/kg/injection, schedule: Q01DX009 (ip), vehicle: Klucel (hydroxypropylcellulose) (HPC)
[13] = endpoint: mean survival time, dose: 100.0 mg/kg/injection, schedule: Q01DX009 (ip), vehicle: Klucel (hydroxypropylcellulose) (HPC)
[14] = endpoint: mean survival time, dose: 200.0 mg/kg/injection, schedule: Q01DX009 (ip), vehicle: Klucel (hydroxypropylcellulose) (HPC)

Measured: T/C

CC(=O)Cc1cc(=O)n(C2OC(COC(=O)c3ccccc3)C(OC(=O)c3ccccc3)C2OC(=O)c2ccccc2)c(=O)[nH]1 (stereo unspecified)
inactive: endpoint: mean survival time, dose: 12.5 mg/kg/injection, schedule: Q01DX005 (ip), vehicle: distilled water + Tween-80 97 % of control | endpoint: mean survival time, dose: 25.0 mg/kg/injection, schedule: Q01DX005 (ip), vehicle: distilled water + Tween-80 97 % of control | endpoint: mean survival time, dose: 50.0 mg/kg/injection, schedule: Q01DX005 (ip), vehicle: distilled water + Tween-80 105 % of control | endpoint: mean survival time, dose: 100.0 mg/kg/injection, schedule: Q01DX005 (ip), vehicle: distilled water + Tween-80 95 % of control | endpoint: mean survival time, dose: 200.0 mg/kg/injection, schedule: Q01DX005 (ip), vehicle: distilled water + Tween-80 100 % of control

CC(/C=N\O)=N\O
inactive: [1] 97 % of control | [2] 103 % of control

O=P1(N(CCCl)CCCl)OC(c2ccccc2)=CCN1c1ccccc1 (stereo unspecified)
inactive: endpoint: mean survival time, dose: 31.25 mg/kg/injection, schedule: Q01DX001 (ip), vehicle: saline 103 % of control | endpoint: mean survival time, dose: 62.5 mg/kg/injection, schedule: Q01DX001 (ip), vehicle: saline 97 % of control | endpoint: mean survival time, dose: 125.0 mg/kg/injection, schedule: Q01DX001 (ip), vehicle: saline 100 % of control | endpoint: mean survival time, dose: 250.0 mg/kg/injection, schedule: Q01DX001 (ip), vehicle: saline 100 % of control | endpoint: mean survival time, dose: 500.0 mg/kg/injection, schedule: Q01DX001 (ip), vehicle: saline 103 % of control

CC(C)N(CCN(C)C(=O)C(O)(c1ccccc1)c1ccccc1)C(C)C
inactive: endpoint: mean survival time, dose: 50.0 mg/kg/injection, schedule: Q04DX003 (ip), vehicle: saline with Tween-80 101 % of control | [3] 93 % of control and 98 % of control | [4] 104 % of control

O=C(O)C(O)CBr (stereo unspecified)
inactive: endpoint: mean survival time, dose: 12.5 mg/kg/injection, schedule: Q04DX003 (ip), vehicle: saline 101 % of control | endpoint: mean survival time, dose: 25.0 mg/kg/injection, schedule: Q04DX003 (ip), vehicle: saline 106 % of control | endpoint: mean survival time, dose: 50.0 mg/kg/injection, schedule: Q04DX003 (ip), vehicle: saline 106 % of control

Cc1ccc(S(=O)(=O)OCCCCCCCCCCOS(=O)(=O)c2ccc(C)cc2)cc1
inactive: [5] 91 % of control | [3] 91 % of control | [6] 92 % of control | [4] 97 % of control | [7] 91 % of control | [8] 94 % of control

N#CCCN=C1C=CC(=C(c2ccccc2)c2ccc(NCCC#N)cc2)C=C1
inactive: [9] 103 % of control | [10] 103 % of control | [11] 107 % of control

CS(=O)CCO (stereo unspecified)
inactive: endpoint: mean survival time, dose: 100.0 mg/kg/injection, schedule: Q04DX002 (ip), vehicle: saline 93 % of control | endpoint: mean survival time, dose: 200.0 mg/kg/injection, schedule: Q04DX002 (ip), vehicle: saline 107 % of control | endpoint: mean survival time, dose: 400.0 mg/kg/injection, schedule: Q04DX002 (ip), vehicle: saline 104 % of control

Cc1ccc(S(=O)(=O)OCC2OC3(COS(=O)(=O)c4ccc(C)cc4)OC(C)(C)OC3C2O)cc1 (stereo unspecified)
inactive: [3] 93 % of control | [4] 101 % of control

O=c1ccc2cc(Cl)cc([N+](=O)[O-])c2o1
inactive: endpoint: mean survival time, dose: 100.0 mg/kg/injection, schedule: Q01DX001 (ip), vehicle: Klucel (hydroxypropylcellulose) (HPC) 102 % of control | endpoint: mean survival time, dose: 200.0 mg/kg/injection, schedule: Q01DX001 (ip), vehicle: Klucel (hydroxypropylcellulose) (HPC) 99 % of control | endpoint: mean survival time, dose: 400.0 mg/kg/injection, schedule: Q01DX001 (ip), vehicle: Klucel (hydroxypropylcellulose) (HPC) 99 % of control

Cc1cccc(NNC(=S)Nc2ccccc2)c1
inactive: endpoint: mean survival time, dose: 100.0 mg/kg/injection, schedule: Q04DX003 (ip), vehicle: saline 94 % of control | endpoint: mean survival time, dose: 200.0 mg/kg/injection, schedule: Q04DX003 (ip), vehicle: saline 100 % of control | endpoint: mean survival time, dose: 400.0 mg/kg/injection, schedule: Q04DX003 (ip), vehicle: saline 100 % of control

CCOc1cccc(Cc2c[nH]c(=O)[nH]c2=O)c1
inactive: [1] 90 % of control | [2] 100 % of control | endpoint: mean survival time, dose: 400.0 mg/kg/injection, schedule: Q01DX001 (ip), vehicle: saline with Tween-80 89 % of control

CC(CC=O)P(=O)(c1ccccc1)c1ccccc1 (stereo unspecified)
inactive: [5] 94 % of control | [3] 94 % of control | [6] 92 % of control | [4] 91 % of control | [7] 95 % of control | [8] 91 % of control

O=C(Nc1cccc(Cl)c1)C(c1ccccc1)c1ccccc1
inactive: [9] 95 % of control | [10] 87 % of control | [11] 91 % of control

CCOCCC#N
inactive: [12] 102 % of control | [13] 102 % of control | [14] 102 % of control

COc1ccc2c(c1O)CNCC2c1ccc(O)c(C)c1 (stereo unspecified)
inactive: endpoint: mean survival time, dose: 75.0 mg/kg/injection, schedule: Q01DX001 (ip), vehicle: saline 98 % of control

CC1(C)CC2(OC2c2ccc([N+](=O)[O-])cc2)C(=O)c2ccccc21 (stereo unspecified)
inactive: endpoint: mean survival time, dose: 12.5 mg/kg/injection, schedule: Q01DX009 (ip), vehicle: Klucel (hydroxypropylcellulose) (HPC) 93 % of control | endpoint: mean survival time, dose: 25.0 mg/kg/injection, schedule: Q01DX009 (ip), vehicle: Klucel (hydroxypropylcellulose) (HPC) 94 % of control | [12] 98 % of control | endpoint: mean survival time, dose: 50.0 mg/kg/injection, schedule: Q01DX009 (ip), vehicle: saline with Tween-80 93 % of control | [13] 100 % of control | [5] 93 % of control | [3] 89 % of control | [14] 100 % of control | [6] 96 % of control | [4] 88 % of control | endpoint: mean survival time, dose: 400.0 mg/kg/injection, schedule: Q01DX009 (ip), vehicle: Klucel (hydroxypropylcellulose) (HPC) 96 % of control

COc1cccc(CN2CCNCC2)c1
inactive: endpoint: mean survival time, dose: 25.0 mg/kg/injection, schedule: Q01DX005 (ip), vehicle: water 102 % of control | endpoint: mean survival time, dose: 50.0 mg/kg/injection, schedule: Q01DX005 (ip), vehicle: water 102 % of control | endpoint: mean survival time, dose: 100.0 mg/kg/injection, schedule: Q01DX005 (ip), vehicle: water 102 % of control

CC1(C)CC(Cc2ccccc2)C(=O)c2ccccc21 (stereo unspecified)
inactive: [3] 94 % of control | [4] 92 % of control | [8] 94 % of control

CO[C@@]12[C@@H]3N[C@@H]3CN1C1=C(C(=O)C(N(C)c3ccc(O)cc3)=C(C)C1=O)[C@@H]2COC(N)=O
inactive: endpoint: median survival time, dose: 3.0 mg/kg/injection, schedule: Q01DX001 (ip), vehicle: distilled water + Tween-80 100 % of control | endpoint: median survival time, dose: 6.0 mg/kg/injection, schedule: Q01DX001 (ip), vehicle: distilled water + Tween-80 121 % of control | endpoint: median survival time, dose: 12.0 mg/kg/injection, schedule: Q01DX001 (ip), vehicle: distilled water + Tween-80 117 % of control and 102 % of control | endpoint: median survival time, dose: 24.0 mg/kg/injection, schedule: Q01DX001 (ip), vehicle: distilled water + Tween-80 113 % of control

CC12CCC3c4ccc(O)cc4CCC3C1CCC2S (stereo unspecified)
inactive: [3] 88 % of control | [4] 92 % of control

CC(=O)OC1CC2(O)C(CCC3(C)C(c4ccc(=O)oc4)CCC32O)C2(C)C1=CC(O)C1OC12 (stereo unspecified)
inactive: endpoint: mean survival time, dose: 0.13 mg/kg/injection, schedule: Q01DX009 (sc), vehicle: steriod suspending solution 100 % of control | endpoint: mean survival time, dose: 0.25 mg/kg/injection, schedule: Q01DX009 (sc), vehicle: steriod suspending solution 97 % of control | endpoint: mean survival time, dose: 0.5 mg/kg/injection, schedule: Q01DX009 (sc), vehicle: steriod suspending solution 100 % of control | endpoint: mean survival time, dose: 1.0 mg/kg/injection, schedule: Q01DX009 (sc), vehicle: steriod suspending solution 89 % of control
